The conditions of series [1]: DTA; for Normal melting temperature: Crystal 1.
Series [2] can be described thus: Molar enthalpy of transition or fusion. Conditions: DSC.

Structures are written as SMILES. Numbers after ± are expanded uncertainties.

As to `Oc1c(Cl)c(Cl)c(Cl)c(Cl)c1Cl` [pentachlorophenol], in series [1], the Normal melting temperature stood at 191.7 ± 0.5 °C. Besides, the Triple point temperature in series [1] (Crystal 2) was 441.6 ± 0.5 K; in series [1] (Crystal 3), 340.2 ± 0.5 K; in series [1] (Crystal 4), 287.4 ± 0.5 K. The “Molar enthalpy of transition or fusion” value in series [2] (Crystal 1) was 15.4 ± 0.51 kJ/mol; in series [2] (Crystal 3), 9 ± 0.35 kJ/mol.

For the compound `Clc1c(Cl)c(Cl)c(Cl)c(Cl)c1Cl` [hexachlorobenzene], the Normal melting temperature in series [1] amounted to 231 ± 0.5 °C. Moreover, the “Molar enthalpy of transition or fusion” value in series [2] (Crystal) was 23.9 ± 0.71 kJ/mol.

Values taken from the NIST ThermoML archive (doi:10.1016/j.tca.2015.01.017).
